One test concerns the target T1, CCR2 (Homo sapiens, UniProt P41597).
T1 construct: Membranes were prepared from THP-1 cells; endogenous in cells; host or cells: THP-1 cells (membrane preparation)
T1 sequence (P41597 1-360 isoform P41597-2): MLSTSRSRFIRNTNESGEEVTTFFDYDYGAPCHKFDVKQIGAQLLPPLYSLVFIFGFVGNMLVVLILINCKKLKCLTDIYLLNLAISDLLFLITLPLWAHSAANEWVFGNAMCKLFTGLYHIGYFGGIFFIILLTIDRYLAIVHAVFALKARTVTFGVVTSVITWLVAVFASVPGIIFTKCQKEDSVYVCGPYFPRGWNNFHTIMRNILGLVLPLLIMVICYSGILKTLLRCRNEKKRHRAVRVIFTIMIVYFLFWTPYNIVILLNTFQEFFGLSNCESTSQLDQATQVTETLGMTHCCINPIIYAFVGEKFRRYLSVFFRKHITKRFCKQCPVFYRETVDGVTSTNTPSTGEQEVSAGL
In words: CCR2 receptor membrane binding assay ([125I]MCP-1, THP-1 cell membranes, SPA beads). The following applies: @ 10 μM test compound; THP-1 membranes; read-out: CCR2 % ctrl @ 10 μM. The method, then:
The above exemplary substances have been tested for binding to CCR2 using a binding assay as outlined herein below:
THP-1 cells (human acute monocytic leukaemia cells) were cultured under standardized conditions at 37° C. and 5% CO2 in a humidified incubator. THP-1 cells were cultivated in RPMI 1640 medium (Gibco 21875) containing 1% MEM-NEAA (Gibso 11140) 2 mM L-glutamine, 1.5 g/L sodium bicarbonate, 4.5 g/L glucose, 10 mM HEPES and 1.0 mM sodium pyruvate, 90%; 10% fetal calf serum (FCS Gibco 10500-064).
Membranes were prepared from THP-1 cells. THP-1 cells were centrifuged at 300×g at 4° C. for 10 min. The cell pellet was resuspendet in Phosphate Buffer Saline (PBS, including 10 μM Pefabloc and a protease inhibitor mix ‘complete’, Boehringer Mannheim (1 tablet/50 ml)), to a concentration of […]. The membrane preparation was performed by disrupting the cells by nitrogen […] (at 50 bar, for 1 h) in a “Nitrogen Bombe” (Parr Instrument). Cell debris was removed by centrifugation (800×g at 4° C., 1 min). The supernatant was centrifuged at 80000×g, 4° C. for 30 min to sediment the cell membranes. Usually 50 mg of protein (Bradford assay) were yielded from 1×10E9 cells. The membranes were resuspendet in 25 mM HEPES, 25 mM MgCl2, 1 mM CaCl2, 10% Glycerine for storage in aliquots at −80° C. in 25 mM HEPES, 25 mM MgCl2, 1 mM CaCl2, 10% Glycerine and stored at −80° C.
Receptor Membrane Binding Assay:
Perkin Elmer NEX 332 Jod 125 MCP-1, Stock: 2200 Ci/mmol solved in 2000 μl assay buffer, stored at −20° C. THP-1 membrane were adjusted with 25 mM HEPES, pH 7.2; 5 mM MgCl2; 0.5 mM CaCl2; 0.2% BSA assay buffer to a concentration of […]. Amersham Biosciences PVT-WGA Beads (RPNQ0001) were adjusted with assay buffer to a concentration of 0.24 mg/30 μl. For preparation of the membrane-bead-suspension membranes and beads were incubated for 30 min at RT under rotation (60 rpm) with a ratio of 1:2. Test compounds dissolved in 100% DMSO to a concentration of 10 mM and are further diluted with 100% DMSO to 1 mM. All additional compound dilutions were obtained with assay buffer, final 1% DMSO. Compounds, membrane-bead-suspension and [125I]MCP-1 (ca. 25000 cpm/10 μl) were incubated. Bound radioactivity was determined by scintillation counter after 8 h. Determination of affinity of test compounds (dissociation constant hKi) is calculated by iterative fitting of experimental data using the “easy sys” program, which is based on law of mass action (Schittkowski K. (1994), Numerische Mathematik, Vol. 68, 129-142).
Regarding `Cc1c(NCC2CCN(c3ccccc3)C2)ncnc1C(=O)N1CCC(N2CCC(O)CC2)CC1` (stereo not shown) [Example 20], the remaining activity at 10 µM came out at 24%.
Still for that read-out and setting: under `Cc1c(NCc2ccc(C(F)(F)F)cc2F)ncnc1C(=O)N1CCC(N2CCC(O)CC2)CC1` [Example 21] stands 51%.
`Cc1c(NC2CCC(c3ccccc3)CC2)ncnc1C(=O)N1CCC(N2CCC(O)CC2)CC1` (stereo not shown) [Example 22]: the remaining activity at 10 µM was determined as 24%.
The same measure, in the same setting: for `Cc1c(NCC2Cc3ccccc3C2)ncnc1C(=O)N1CCC(N2CCC(O)CC2)CC1` [Example 23] the value was 7%; for `Cc1c(NC2COc3ccccc3C2)ncnc1C(=O)N1CCC(N2CCC(O)CC2)CC1` (stereo not shown) [Example 24], 58%.
In the case of `Cc1c(N[C@@H]2CCc3ccccc3C2)ncnc1C(=O)N1CCC(N2CCC(O)CC2)CC1` [Example 25], the remaining activity at 10 µM came to 47%.
On the same count and under the same terms, for `Cc1c(NCC2Cc3ccccc32)ncnc1C(=O)N1CCC(N2CCC(O)CC2)CC1` (stereo not shown) [Example 26] the value was 30%; for `Cc1c(NCC2Cc3ccccc3O2)ncnc1C(=O)N1CCC(N2CCC(O)CC2)CC1` (stereo not shown) [Example 27], 25%; for `Cc1c(NC2CCCCC2)ncnc1C(=O)N1CCC(N2CCC(O)CC2)CC1` [Example 28], 58%.
The same measure, in the same setting: for `Cc1c(NCc2ccc3occc3c2)ncnc1C(=O)N1CCC(N2CCC(O)CC2)CC1` [Example 29] the value was 40%; for `Cc1ccc(CNc2ncnc(C(=O)N3CCC(N4CCC(O)CC4)CC3)c2C)cc1Cl` [Example 30], 18%.
Same read-out and setting: under `Cc1ccc(CNc2ncnc(C(=O)N3CCC(N4CCC(O)CC4)CC3)c2C)cc1C` [Example 31] stands 28%; under `CCS(=O)(=O)N(C)C1CCN(C2CCN(C(=O)c3ncnc(NCc4ccc(C)c(Cl)c4)c3C)CC2)CC1` [Example 32], 2%.
In the case of `CCS(=O)(=O)N(C)C1CCN(C2CCN(C(=O)c3ncnc(NCc4ccc(C(F)(F)F)c(Cl)c4)c3C)CC2)CC1` [Example 33], the remaining activity at 10 µM worked out at 0%.
Take `CCS(=O)(=O)N(C)C1CCN(C2CCN(C(=O)c3ncnc(NCc4ccc(C(C)C)cc4)c3C)CC2)CC1` [Example 34]: the remaining activity at 10 µM was determined as 4%.
In the case of `CCS(=O)(=O)N(C)C1CCN(C2CCN(C(=O)c3ncnc(NCc4ccc(Cl)c(Cl)c4)c3C)CC2)CC1` [Example 35], the remaining activity at 10 µM amounted to 5%.
Regarding `CCS(=O)(=O)N(C)C1CCN(C2CCN(C(=O)c3ncnc(NCCc4ccc(Cl)c(Cl)c4)c3C)CC2)CC1` [Example 36], the remaining activity at 10 µM amounted to 1%.
On the same count and under the same terms, for `CCS(=O)(=O)N(C)C1CCN(C2CCN(C(=O)c3ncnc(NCc4ccc(C(C)(C)C)cc4)c3C)CC2)CC1` [Example 37] the value was 4%.
On the same count and under the same terms, under `CCS(=O)(=O)N(C)C1CCN(C2CCN(C(=O)c3ncnc(NCC4CCCN(c5ccccc5)C4)c3C)CC2)CC1` (stereo not shown) [Example 38] stands 13%; under `CCS(=O)(=O)N(C)C1CCN(C2CCN(C(=O)c3ncnc(NCc4ccc(Cl)c(F)c4)c3C)CC2)CC1` [Example 39], 2%.

Staying with this test, now noted: dissociation constant hKi; [125I]MCP-1 binding to THP-1 membranes.
As usually defined, the Ki is a measure of affinity in units of concentration, obtained from inhibition or displacement. A lower Ki goes with tighter binding. Molecule `Cc1c(NCC2CCN(c3ccccc3)C2)ncnc1C(=O)N1CCC(N2CCC(O)CC2)CC1` (stereo not shown) [Example 20] had an inhibition constant Ki of 0.303 µM.
With `Cc1c(NCc2ccc(C(F)(F)F)cc2F)ncnc1C(=O)N1CCC(N2CCC(O)CC2)CC1` [Example 21], the inhibition constant Ki turned out to be 2.66 µM.
Same read-out and setting: for `Cc1c(NC2CCC(c3ccccc3)CC2)ncnc1C(=O)N1CCC(N2CCC(O)CC2)CC1` (stereo not shown) [Example 22] the value was 0.466 µM; for `Cc1c(NCC2Cc3ccccc3C2)ncnc1C(=O)N1CCC(N2CCC(O)CC2)CC1` [Example 23], 0.169 µM.
The same measure, in the same setting: under `Cc1c(NC2COc3ccccc3C2)ncnc1C(=O)N1CCC(N2CCC(O)CC2)CC1` (stereo not shown) [Example 24] stands 4.03 µM; under `Cc1c(N[C@@H]2CCc3ccccc3C2)ncnc1C(=O)N1CCC(N2CCC(O)CC2)CC1` [Example 25], 2.41 µM.
On the same count and under the same terms, under `Cc1c(NCC2Cc3ccccc32)ncnc1C(=O)N1CCC(N2CCC(O)CC2)CC1` (stereo not shown) [Example 26] stands 0.914 µM.
In the case of `Cc1c(NCC2Cc3ccccc3O2)ncnc1C(=O)N1CCC(N2CCC(O)CC2)CC1` (stereo not shown) [Example 27], the inhibition constant (Ki) was 0.62 µM.
Still for that read-out and setting: for `Cc1c(NC2CCCCC2)ncnc1C(=O)N1CCC(N2CCC(O)CC2)CC1` [Example 28] the value was 4.18 µM; for `Cc1c(NCc2ccc3occc3c2)ncnc1C(=O)N1CCC(N2CCC(O)CC2)CC1` [Example 29], 2.1 µM.
Still for that read-out and setting: under `Cc1ccc(CNc2ncnc(C(=O)N3CCC(N4CCC(O)CC4)CC3)c2C)cc1Cl` [Example 30] stands 0.446 µM.
Turning to `Cc1ccc(CNc2ncnc(C(=O)N3CCC(N4CCC(O)CC4)CC3)c2C)cc1C` [Example 31], the Ki turned out to be 0.79 µM.
Consider `CCS(=O)(=O)N(C)C1CCN(C2CCN(C(=O)c3ncnc(NCc4ccc(C)c(Cl)c4)c3C)CC2)CC1` [Example 32], for which the Ki was 0.037 µM.
Same read-out and setting: for `CCS(=O)(=O)N(C)C1CCN(C2CCN(C(=O)c3ncnc(NCc4ccc(C(F)(F)F)c(Cl)c4)c3C)CC2)CC1` [Example 33] the value was 0.022 µM; for `CCS(=O)(=O)N(C)C1CCN(C2CCN(C(=O)c3ncnc(NCc4ccc(C(C)C)cc4)c3C)CC2)CC1` [Example 34], 0.062 µM.
The same measure, in the same setting: under `CCS(=O)(=O)N(C)C1CCN(C2CCN(C(=O)c3ncnc(NCc4ccc(Cl)c(Cl)c4)c3C)CC2)CC1` [Example 35] stands 0.024 µM; under `CCS(=O)(=O)N(C)C1CCN(C2CCN(C(=O)c3ncnc(NCCc4ccc(Cl)c(Cl)c4)c3C)CC2)CC1` [Example 36], 0.01 µM.
On the same count and under the same terms, under `CCS(=O)(=O)N(C)C1CCN(C2CCN(C(=O)c3ncnc(NCc4ccc(C(C)(C)C)cc4)c3C)CC2)CC1` [Example 37] stands 0.011 µM.
For `CCS(=O)(=O)N(C)C1CCN(C2CCN(C(=O)c3ncnc(NCC4CCCN(c5ccccc5)C4)c3C)CC2)CC1` (stereo not shown) [Example 38], the affinity, expressed as Ki, was 0.069 µM.
The same measure, in the same setting: for `CCS(=O)(=O)N(C)C1CCN(C2CCN(C(=O)c3ncnc(NCc4ccc(Cl)c(F)c4)c3C)CC2)CC1` [Example 39] the value was 0.036 µM.

The values are drawn from patent publication US8835440B2, “Cyclic pyrimidin-4-carboxamides as CCR2 receptor antagonists for treatment of inflammation, asthma and COPD” (Boehringer Ingelheim International GmbH, priority 2008, dated 2014).
